{"source": "patent US20080145432A1", "about": "“Fine Particle and Pharmaceutical Preparation” (priority 2005, published 2008)", "test_system": "BALB/c mice", "test": "Drug effect durability: serum glucose concentration after hypodermic injection", "assay_type": "in vivo", "details": "10 hours after administration under the dorsal skin, 15 μg insulin, fasted mice", "experimental": "A particulate preparation enclosing 15 μg (WAKO) of insulin prepared in a method of example 9 was dispersed in 100 μL of normal saline (Otsuka), and was administered to 7-week-old male BALB/c mice (weighing 19 to 24 g) after fasting for 12 hours, under the dorsal skin by using 29 G injection needle (Terumo) (in the control group, 100 μL of normal saline (Otsuka) dissolving 15 μg of insulin was used). After administration, animals were kept fasted in individual cages, and blood samples collected from the caudal artery before and after administration were tested by biochemical automatic analyzer (Fuji Drychem 3500V of Fuji Film), by using measuring slide (GLU-WIII of Fuji Film), and changes of glucose concentration were measured at time intervals, and the average of serum glucose concentration changes of two animals each was calculated."}
{"substance": "insulin", "values": [{"measurement": "serum glucose concentration relative to level before administration", "result": 80, "unit": "%"}]}
